Some results are limits rather than exact numbers.

One may read the IC50 as the midpoint of a concentration-inhibition curve. Higher therefore signals a need for much substance.

The test concerns the target T1, RORC2 ligand binding domain (6-His-RORC2 LBD) (Homo sapiens, UniProt P51449).
T1 construct: made in house; host or cells: E. coli
T1 sequence (P51449 269-508 limits assumed): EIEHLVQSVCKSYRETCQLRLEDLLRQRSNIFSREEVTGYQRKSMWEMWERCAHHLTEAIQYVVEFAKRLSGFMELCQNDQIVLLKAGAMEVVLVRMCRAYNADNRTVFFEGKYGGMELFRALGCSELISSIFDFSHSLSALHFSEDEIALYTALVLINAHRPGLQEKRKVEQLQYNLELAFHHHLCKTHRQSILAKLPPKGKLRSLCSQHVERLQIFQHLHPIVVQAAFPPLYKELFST
The experiment in a line: Co-activator recruitment by TR-FRET (RORC2 FRET). As to conditions: 6.3 nM RORC2 LBD, 200 nM SRC1-2 coactivator peptide, 3 hours room temperature. In kind it is biochemical. An excerpt:
The activity of compound of the invention can be determined by a co-activator recruitment by TR-FRET (time-resolved fluorescence resonance energy transfer) assay. […] Due to the long lasting fluorescence emission of Europium, the non-specific, short-lived fluorescence is time-resolved (TR) from the fluorescence of interest. Inhibitors of the interaction of receptor and coactivator peptide are detected by a decrease in TR-FRET signal.
Specifically, in one embodiment the aforementioned assay was performed as outlined below. The assay was carried out in black polystyrene, 384-well plates in a total assay volume of 50.5 μL. The assay buffer contained 50 mM TRIS-HCL pH 7.5, 1 mM NaCl, 2 mM MgCl2, 0.5 mg/mL bovine serum albumin, and 5 mM dithiothreitol.
Compound `Cn1cc(C2CCN(C(=O)C3CCCC3)CC2)c2cc(NS(=O)(=O)c3cccc(C#N)c3)ccc21` [Example 67, 3-cyano-N-{3-[1-(cyclopentylcarbonyl)piperidin-4-yl]-1-methyl-1H-indol-5-yl}benzenesulfonamide] yielded an IC50 of 11.4 nM.
Then `N#Cc1cccc(C(=O)Nc2ccc3[nH]cc(C4CCN(CC5CCCC5)CC4)c3c2)c1` [Example 87, 3-cyano-N-(3-(1-(cyclopentylmethyl)piperidin-4-yl)-1H-indol-5-yl)benzamide], with more than 20000 nM; and `O=C(O)c1cccc(C(=O)Nc2ccc3[nH]cc(C4CCN(C(=O)C5CCCC5)CC4)c3c2)c1` [Example 48, 3-({3-[1-(cyclopentylcarbonyl)piperidin-4-yl]-1H-indol-5-yl}carbamoyl)benzoic acid], with 211 nM; and `O=C(Nc1ccc2[nH]cc(C3CCN(C(=O)C4CCCC4)CC3)c2c1)c1ccccc1Cl` [Example 44, 2-chloro-N-{3-[1-(cyclopentylcarbonyl)piperidin-4-yl]-1H-indol-5-yl}benzamide], with 624 nM.
With `CC[C@H](C)[C@H](O)C(=O)N1CCC(c2cn(C)c3ccc(NC(=O)c4cccc(C#N)c4)cc23)CC1` [Example 3, 3-cyano-N-(3-(1-((2S,3S)-2-hydroxy-3-methylpentanoyl)piperidin-4-yl)-1-methyl-1H-indol-5-yl)benzamide] the figure was 387 nM; with `CC(C)C(=O)N1CCC(c2cn(C)c3ccc(NS(=O)(=O)c4ccc(F)cc4)cc23)CC1` [Example 92, 4-fluoro-N-(3-(1-isobutyrylpiperidin-4-yl)-1-methyl-1H-indol-5-yl)benzenesulfonamide], 10.5 nM.
With `COCCCS(=O)(=O)Nc1ccc2c(c1)c(C1CCN(C(=O)C3CCCC3)CC1)cn2C` [Example 74, N-{3-[1-(cyclopentylcarbonyl)piperidin-4-yl]-1-methyl-1H-indol-5-yl}-3-methoxypropane-1-sulfonamide] the figure was 53 nM; with `O=C(Nc1ccc2[nH]cc(C3CCN(C(=O)C4CCCC4)CC3)c2c1)c1ccc2scnc2c1` [Example 43, N-{3-[1-(cyclopentylcarbonyl)piperidin-4-yl]-1H-indol-5-yl}-1,3-benzothiazole-5-carboxamide], 1030 nM; with `N#Cc1cccc(C(=O)Nc2ccc3cnn(C4CCN(C(=O)C5CCCC5)CC4)c3c2)c1` [Example 84, 3-cyano-N-(1-(1-(cyclopentanecarbonyl)piperidin-4-yl)-1H-indazol-6-yl)benzamide], 214 nM.
Take `Cc1cnc(N2CCC(c3cn(C)c4ccc(NC(=O)c5cccc(C#N)c5)cc34)CC2)nc1` [Example 81, 3-cyano-N-(1-methyl-3-(1-(5-methylpyrimidin-2-yl)piperidin-4-yl)-1H-indol-5-yl)benzamide]: the IC50 came out at 335 nM.
Then `Cn1cc(C2CCN(C(=O)c3cccc(O)n3)CC2)c2cc(NC(=O)c3cc(C#N)ccn3)ccc21` [Example 21, 4-cyano-N-(3-{1-[(6-hydroxypyridin-2-yl)carbonyl]piperidin-4-yl}-1-methyl-1H-indol-5-yl)pyridine-2-carboxamide], with 1440 nM.
With `Cn1cc(C2CCN(C(=O)[C@H]3CC[C@@H](O)CC3)CC2)c2cc(NC(=O)c3cc(C#N)ccn3)ccc21` [Example 29, 4-cyano-N-(3-{1-[(cis-4-hydroxycyclohexyl)carbonyl]piperidin-4-yl}-1-methyl-1H-indol-5-yl)pyridine-2-carboxamide] the figure was 56.2 nM.
As for `Cn1cc(C2CCN(C(=O)C3CCCC3)C2)c2cc(NC(=O)c3cccc(C#N)c3)ccc21` (stereo not shown) [Example 79, 3-cyano-N-(3-(1-(cyclopentylcarbonyl)pyrrolidin-3-yl)-1-methyl-1H-indol-5-yl)benzamide], the IC50 was found to be 199 nM.
With `NC(=O)c1cccc(C(=O)Nc2ccc3[nH]cc(C4CCN(C(=O)C5CCCC5)CC4)c3c2)c1` [Example 50, N-{3-[1-(cyclopentylcarbonyl)piperidin-4-yl]-1H-indol-5-yl}isophthalamide] the figure was 1430 nM; with `COc1ccc(C#N)cc1C(=O)Nc1ccc2[nH]cc(C3CCN(C(=O)C4CCCC4)CC3)c2c1` [Example 40, 5-cyano-N-{3-[1-(cyclopentylcarbonyl)piperidin-4-yl]-1H-indol-5-yl}-2-methoxybenzamide], 380 nM; with `Cc1ncc(C(=O)Nc2ccc3[nH]cc(C4CCN(C(=O)C5CCCC5)CC4)c3c2)cc1C#N` [Example 53, 5-cyano-N-{3-[1-(cyclopentylcarbonyl)piperidin-4-yl]-1H-indol-5-yl}-6-methylnicotinamide], 124 nM.
Then `O=C(Nc1ccc2[nH]cc(C3CCN(C(=O)C4CCCC4)CC3)c2c1)c1ccc2[nH]cnc2c1` [Example 51, N-{3-[1-(cyclopentylcarbonyl)piperidin-4-yl]-1H-indol-5-yl}-1H-benzimidazole-5-carboxamide], with 871 nM; and `Cn1cc(C2CCN(C(=O)c3ccncn3)CC2)c2cc(NC(=O)c3cc(C#N)ccn3)ccc21` [Example 20, 4-cyano-N-{1-methyl-3-[1-(pyrimidin-4-ylcarbonyl)piperidin-4-yl]-1H-indol-5-yl}pyridine-2-carboxamide], with 246 nM; and `Cn1cc(C2CCN(C(=O)C3CCCC3)CC2)c2cc(NC(=O)N3CCCC(C#N)C3)ccc21` (stereo not shown) [Example 58, 3-cyano-N-(3-(1-(cyclopentanecarbonyl)piperidin-4-yl)-1-methyl-1H-indol-5-yl)piperidine-1-carboxamide], with 256 nM.
Then `Cn1cc(C2CCN(C(=O)C3CCCC3)CC2)c2cc(NS(=O)(=O)c3ccc(F)cc3)ccc21` [Example 64, N-(3-(1-(cyclopentylcarbonyl)piperidin-4-yl)-1-methyl-1H-indol-5-yl)-4-fluorobenzenesulfonamide], with 5.8 nM.
`Cn1cc(C2CCN(C(=O)C3CCCC3)CC2)c2cc(NS(=O)(=O)c3ccccc3)ccc21` [Example 68, N-{3-[1-(cyclopentylcarbonyl)piperidin-4-yl]-1-methyl-1H-indol-5-yl}benzenesulfonamide] yielded an IC50 of 6.5 nM.
With `Cn1cc(C2CCN(C(=O)C[C@@H](O)C(F)(F)F)CC2)c2cc(NC(=O)c3cccc(C#N)c3)ccc21` [Example 90, (R)-3-cyano-N-(1-methyl-3-(1-(4,4,4-trifluoro-3-hydroxybutanoyl)piperidin-4-yl)-1H-indol-5-yl)benzamide] the figure was 13.9 nM.
In the case of `CNc1ncccc1C(=O)N1CCC(c2cn(C)c3ccc(NC(=O)c4cc(C#N)ccn4)cc23)CC1` [Example 16, 4-cyano-N-[1-methyl-3-(1-{[2-(methylamino)pyridin-3-yl]carbonyl}piperidin-4-yl)-1H-indol-5-yl]pyridine-2-carboxamide], the IC50 is 132 nM.
Then `Cn1cc(C2CCN(C(=O)C3CCCC3)CC2)c2cc(NS(=O)(=O)c3cccc(F)c3)ccc21` [Example 66, N-{3-[1-(cyclopentylcarbonyl)piperidin-4-yl]-1-methyl-1H-indol-5-yl}-3-fluorobenzenesulfonamide], with 7 nM; and `Cn1cc(C2CCN(C(=O)C(O)C(F)(F)F)CC2)c2cc(NC(=O)c3cc(C#N)ccn3)ccc21` (stereo not shown) [Example 23, 4-cyano-N-{1-methyl-3-[1-(3,3,3-trifluoro-2-hydroxypropanoyl)piperidin-4-yl]-1H-indol-5-yl}pyridine-2-carboxamide], with 334 nM.

For the origin of these results see patent US20160046597A1, “RORC2 INHIBITORS AND METHODS OF USE THEREOF” (PFIZER INC., priority 2013, published 2016).
